Measurements: US20250387494A1, “Prodrugs Based On Tumor Targeting Near Infrared Dye-Drug Conjugates (DDC)” (Lahjavida, Inc., priority 2022, published 2025)

How the values were obtained:
[1] = system: 2D lung cancer cell line (A549); assay: Compound uptake study by NIR mean intensity; assay type: cell-based; conditions: 5 μM, compared with control dyes Dye 1 and Dye 2, all time points
Experimental: The tumor cells were seeded in a chamber and incubated for 24 h at 37° C. under 5% CO2. After removal of medium, cells were treated with the test materials at 5 μM concentration. When reaching the time points, cells were washed with PBS three times, then fluorescent images were taken under a fluorescent microscope.
(§1) The tumor-targeting ability and therapeutic efficacy of a four additional DDC prodrugs together with the controls of two corresponding NIR dyes, as well as two chemotherapeutic drugs were explored (Table 6) in 2D lung cancer cell line (A549) studies.
(§2) The cell lines were dosed with 5 μM of said compounds. Two studies were carried out: one was the compounds uptake study by the tumor cell line as judged by both the NIR intensity mean (FIG. 6) and by nuclei counts (FIG. 7) per well over time.

SW620 tumor [2] = assay: In vivo NIR fluorescent imaging of whole body and organs; conditions: for tumor accumulation, whole body NIR imaging: intravenous tail injection, 11 days after second dosing at 15 mg/kg; for tumor accumulation, whole body NIR imaging / NIR fluorescent signal in tumor (organ imaging) / NIR signal (organ imaging): 10 s exposure
Experimental: (§3) Thirty-nine (39) female athymic nude mice were injected subcutaneously with 10×10^6 SW620 cells in 0.1 ml PBS with 20% Matrigel on the right flank. When the tumor size reaches within the range of approximately ˜70-200 mm^3, mice were sorted as day 0. Thirty (30) mice were randomized into five (5) groups of six (6) mice per group and dosed singly (I.V.) with the test articles or the vehicle control (This day is Day 1: treatment starts). Administrations of Vehicle (saline), NIR dye (“Dye3” in Table 2), Irinotecan, NIR dye-linker-SN38 (XV), and NIR dye-linker Doxo (XVI) are described in Table 6. Before treatment starts/randomization of mice, the 6 mice whose tumors were getting within the range first were used to determine the maximum tolerated dose (MTD) or dose level of two articles NIR day-linker-SN38 (XV), and NIR dye-linker Doxo (XVI), 3 mice for each.
(§4) Tumor size will be assessed daily, and once noticed palpably, the tumor measurements/body weight started daily up to the randomization day, and before randomization, to get 6 mice as mentioned above for the MTD study, and NIR imaging. After randomization, tumor size and body weight were assessed three times a week (M, W, F) for the duration of the study. Monitoring: a), Record BW on M, W, and F; b). Record signs of distress daily; c). Record tumor size M, W, F; d). In vivo NIR imaging (Group 1, 2, 4, and 5): Ex: 780 nm, Em: 810 nm, on day 1:0.5 hr, 2 hr, 4 hr, 8 hr post day 1 dosing, then 24 hr (day 2), then in vivo imaging, every M, W, and F, until the study ended on day 35.
Mice were euthanized on day 35 or mice will be sacrificed when tumor size was more than 2000 mm^3. On termination day, NIR imaging of various organs of 3 mice (if the remaining mice >3) from each group 1, 2, 4 and 5. For each mouse: the tumor, heart, liver, spleen, lungs, kidneys, and brain are imaged at the same time.
(§5) The mice were injected with the said compounds either via intravenous tail injection or with intratumor injection for. Two studies were carried out: one was the compounds uptake study by the tumor as judged by the NIR imaging of both the whole mice body (FIGS. 10A, 10B, 11A, and 11B) and of the mice organs (FIGS. 12A, 12B, 13A, 13B, 14A and 14B). The injection method for these study was via intravenous tail injection. The second was the efficacy evaluation of these compounds as judged by their tumor growth inhibition, the injection method for these study was via both intravenous tail injection and intratumor injection.

SW620 tumor [3] = assay: Tumor growth inhibition, intravenous tail injection; assay type: in vivo, mice; parameters: key to Tumor size: tumor size in mm^3; conditions: for Tumor size: i.v. 10 mg/kg, second dose 15 mg/kg on Day 11; for Tumor increase rate: i.v.; for tumor growth rate: intravenous
Experimental: as §3, §4, §5

SW620 tumor [4] = assay: Tumor growth inhibition, intratumor injection; assay type: in vivo, mice; conditions: for Tumor increase rate: intratumor 15 mg/kg; for Tumor size / tumor growth rate: intratumor injection 15 mg/kg
Experimental: as §3, §4, §5

[5] = system: 2D lung cancer cell line (A549); assay: Compound uptake/toxicity study by nuclei counts; assay type: cell-based; conditions: 5 μM, over all the time points
Experimental: Cell viability assay was measured using Cell Titer-Glo luminescent cell ability kit via two parameters: Hoechst nuclei counts via imaging, and 2D Celltiter-glo measuring ATP content from live cells. IC50 values were calculated with a 4-variable curve analysis.
as §1, §2

[6] = Day 4 vs Day 1 (cell stands under Day 1)
[7] = Day 6 vs Day 4 (cell stands under Day 4)
[8] = Day 8 vs Day 6 (cell stands under Day 6)
[9] = Day 11 vs Day 8 (cell stands under Day 8)
[10] = Day 13 vs Day 11 (cell stands under Day 11)
[11] = Day 15 vs Day 13 (cell stands under Day 13)
[12] = Day 18 vs Day 15 (cell stands under Day 15)
[13] = Day 20 vs Day 18 (cell stands under Day 18)

## CCCCN1/C(=C/C=C2\CCCC(/C=C/C3=[N+](CCCCS(=O)(=O)[O-])c4ccccc4C3(C)C)=C2SCCC(=O)NCCC(=O)N2Cc3ccccc3-c3nnn(CCOCCOCCOCCOCCOCCOCCOCCOCCNC(=O)COCC(=O)N[C@H](C(=O)N[C@@H](CCCNC(N)=O)C(=O)Nc4ccc(COC(=O)Oc5ccc6nc7c(c(CC)c6c5)Cn5c-7cc6c(c5=O)COC(=O)[C@]6(O)CC)cc4)C(C)C)c3-c3ccccc32)C(C)(C)c2ccccc21 [Compound XV, Dye1-PEG8-Val-Cit-PABA-SN-38]
[1]
  uptake by NIR Mean Intensity: taken up well
SW620 tumor [2]
  tumor accumulation, whole body NIR imaging: accumulate selectively in the tumor sites
SW620 tumor [2]; second dose 15 mg/kg, 24 hr after intravenous tail injection, auto exposure
  organ NIR fluorescent signal: the tumor showed the strongest NIR fluorescent signal among all the organs
SW620 tumor [3]; Day 1
  Tumor size: 163.7
SW620 tumor [3]; Day 4
  Tumor size: 235.4
SW620 tumor [3]; Day 6
  Tumor size: 364.9
SW620 tumor [3]; Day 8
  Tumor size: 794.5
SW620 tumor [3]; Day 11
  Tumor size: 988.8
SW620 tumor [3]; Day 13
  Tumor size: 11114.9
SW620 tumor [3]; Day 15
  Tumor size: 1193.3
SW620 tumor [3]; Day 18
  Tumor size: 1239.1
SW620 tumor [3]; Day 20
  Tumor size: 1342.1
SW620 tumor [3]; [6]
  Tumor increase rate: 44%
SW620 tumor [3]; [7]
  Tumor increase rate: 55%
SW620 tumor [3]; [8]
  Tumor increase rate: 118%
SW620 tumor [3]; [9]
  Tumor increase rate: 25%
SW620 tumor [3]; [10]
  Tumor increase rate: 12.7%
SW620 tumor [3]; [11]
  Tumor increase rate: 7%
SW620 tumor [3]; [12]
  Tumor increase rate: 3.8%
SW620 tumor [3]; [13]
  Tumor increase rate: 8.3%
SW620 tumor [3]; after the second dose (15 mg/kg, Day 11), low
  tumor growth rate: 4%
SW620 tumor [3]; before the second dose
  tumor growth rate: 63%
SW620 tumor [4]; [6]
  Tumor increase rate: 44%
SW620 tumor [4]; [7]
  Tumor increase rate: 55%
SW620 tumor [4]; [8]
  Tumor increase rate: 118%
SW620 tumor [4]; [9]
  Tumor increase rate: 25%
SW620 tumor [4]; [10]
  Tumor increase rate: 12.7%
SW620 tumor [4]; [11]
  Tumor increase rate: 7%
SW620 tumor [4]; [12]
  Tumor increase rate: 3.8%
SW620 tumor [4]; [13]
  Tumor increase rate: 8.3%
SW620 tumor [4]; Day 1
  Tumor size: 163.7 mm^3
SW620 tumor [4]; Day 4
  Tumor size: 235.4 mm^3
SW620 tumor [4]; Day 6
  Tumor size: 364.9 mm^3
SW620 tumor [4]; Day 8
  Tumor size: 794.5 mm^3
SW620 tumor [4]; Day 11
  Tumor size: 988.8 mm^3
SW620 tumor [4]; Day 13
  Tumor size: 11114.9 mm^3
SW620 tumor [4]; Day 15
  Tumor size: 1193.3 mm^3
SW620 tumor [4]; Day 18
  Tumor size: 1239.1 mm^3
SW620 tumor [4]; Day 20
  Tumor size: 1342.1 mm^3
SW620 tumor [4]; as low as
  tumor growth rate: 1%
SW620 tumor [4]; initial
  tumor growth rate: 63%

## CCCCN1/C(=C/C=C2\CCCC(/C=C/C3=[N+](CCCCS(=O)(=O)[O-])c4ccccc4C3(C)C)=C2SCCC(=O)NCCC(=O)N2Cc3ccccc3-c3nnn(CCOCCOCCOCCOCCOCCOCCOCCOCCNC(=O)COCC(=O)N[C@H](C(=O)N[C@@H](CCCNC(N)=O)C(=O)Nc4ccc(COC(=O)N[C@@H]5CC(O[C@@H]6C[C@@](O)(C(=O)CO)Cc7c(O)c8c(c(O)c76)C(=O)c6c(OC)cccc6C8=O)O[C@H](C)[C@H]5O)cc4)C(C)C)c3-c3ccccc32)C(C)(C)c2ccccc21 (stereo partly drawn) [Compound XVI, Dye1-PEG8-Val-Cit-PABA-Doxorubicin]
[1]
  uptake by NIR Mean Intensity: taken up well
SW620 tumor [2]; first dose 10 mg/kg, day 17 after intravenous tail injection
  NIR fluorescent signal in tumor (organ imaging): strong NIR fluorescent signals
SW620 tumor [2]
  tumor accumulation, whole body NIR imaging: accumulate selectively in the tumor sites
SW620 tumor [2]; second dose 15 mg/kg, day 7 after intravenous tail injection, versus first dose day 17
  NIR fluorescent signal in tumor (organ imaging): more intense
SW620 tumor [4]; Day 3 vs Day 1 (cell stands under Day 1)
  Tumor increase rate: 63%
SW620 tumor [4]; Day 5 vs Day 3 (cell stands under Day 3)
  Tumor increase rate: 1.1%
SW620 tumor [4]; Day 8 vs Day 5 (cell stands under Day 5)
  Tumor increase rate: 2.4%
SW620 tumor [4]; Day 10 vs Day 8 (cell stands under Day 8)
  Tumor increase rate: 5.5%
SW620 tumor [4]; Day 1 (Table 10 schedule)
  Tumor size: 855.4 mm^3
SW620 tumor [4]; Day 3
  Tumor size: 1393.5 mm^3
SW620 tumor [4]; Day 5
  Tumor size: 1409 mm^3
SW620 tumor [4]; Day 8 (Table 10 schedule)
  Tumor size: 1443 mm^3
SW620 tumor [4]; Day 10
  Tumor size: 1523.7 mm^3
SW620 tumor [4]; as low as
  tumor growth rate: 0.4%
SW620 tumor [4]; initial
  tumor growth rate: 24%

## CCCCN1/C(=C/C=C2\CCCC(/C=C/C3=[N+](CCCCS(=O)(=O)[O-])c4ccccc4C3(C)C)=C2SCCC(=O)O)C(C)(C)c2ccccc21 [Dye 1]
[5]
  toxicity by Nuclei Counts: not toxic
SW620 tumor [2]; first dose 4.37 mg/kg, day 17 after intravenous tail injection
  NIR signal (organ imaging): no NIR signals
SW620 tumor [2]; second dose 4.37 mg/kg, day 7 after intravenous tail injection
  NIR signal (organ imaging): strong NIR signals

## COC(=O)CCSC1=C(/C=C/C2=[N+](CCCCS(=O)(=O)[O-])c3ccccc3C2(C)C)CCC/C1=C\C=C1\N(CCCCCC(=O)O)c2ccccc2C1(C)C [Dye 2]
[5]
  toxicity by Nuclei Counts: not toxic
